Series [1] can be described thus: partial pressure of water over aqueous 2-hydroxyethylammonium formate solution, FTIR spectroscopy in the gas phase. It is filed as physicochemical. As to the method: For this purpose, the partial pressure of water over an aqueous 2-hydroxyethylammonium formate solution was determined at a customary phase equilibrium temperature (by means of FTIR spectroscopy in the gas phase).

Series [2] is described as follows: miscibility of ionic liquid with working substance water. The series is classed as physicochemical.

As for `NCCO.O=CO` [2-hydroxyethylammonium formate], in series [1], the “factor by which the vapor pressure of water is reduced on dissolution in the ionic liquid” value was 4. In addition, the “partial pressure of water over the solution” value in series [1] (30.5° C., 84% by weight of 2-hydroxyethylammonium formate and 16% by weight of water, water itself about 40 mbar) is given as “about 10 mbar”; in series [1] (34° C., 87% by weight of 2-hydroxyethylammonium formate and 13% by weight of water, water itself about 50 mbar), “about 12 mbar”.
In the case of `CCn1cc[n+](C)c1.O=S(=O)([O-])C(F)(F)F` [ethylmethylimidazolium triflate], the miscibility with water result in series [2] is “can be mixed with water”.

The values above are taken from patent US9062899B2, “Pairs of working substances for absorption heat pumps, absorption refrigeration machines and heat transformers” (BASF SE, priority 2004, dated 2015).
